Assay results taken from US6589566B2, “Composition comprising theanine” (priority 1998, dated 2003).

Assays:
[1] = system: women complaining of premenstrual syndrome symptoms; assay: Test Example 5: premenstrual syndrome questionnaire, powdered L-theanine; type: in vivo, humans; details: 20 women, 50 mg powdered L-theanine per day during corpus lutea stage
Protocol: A test for assessing the premenstrual syndrome-suppressive effect of the inventive product was performed in 20 women complaining of 5 or more premenstrual syndrome symptoms. The inventive product used herein was powdered L-theanine as prepared in Example 1. Each subject was requested to measure their basal body temperature upon awaking for 2 months. […] During the test period, physical symptoms, mental symptoms and social symptoms were recorded in detail everyday. On the first day of the third menstruation, the test was terminated and a questionnaire survey was conducted. Questionnaire Survey Concerning Premenstrual Syndrome of Test Example 5 1. Were PMS symptoms suppressed ? 1) having remarkable effects; 2) having some effects; 3) having slight effects; 4) none. 2. For those selected 1), 2) or 3) in 1., were there any improvements in the daily life ? […] 3. For those selected 1), 2) or 3) in 1., please give specifics: […]

ICR male mice = assay: Example 11: amount of spontaneous exercise, rotatable cage; type: in vivo; details: oral 10 ml of 1% by weight aqueous solution per 1 kg body weight, versus non-administered group
Protocol: Ten ICR male mice were each orally administered with 10 ml of a 1% by weight theanine aqueous solution, per 1 kg of body weight, and the mice were allowed to stand in an inhalation box. The administered group of mice were compared with the 10 non-administered group of mice, wherein the amount of excercise was evaluated by counting the number of rotations of the rotatable cage for 60 minutes.

mice = type: in vivo; details: oral administration of 2 g/kg
Excerpt: Theanine, formulated in the theanine-containing composition of the present invention, is a glutamic acid derivative contained in tea-leaves, which is the main component of deliciousness (umami) of tea. It is also used as a food additive for seasoning. […] As described above, the theanine is an extremely safe substance.

male and female subjects = assay: Test Example 4: anxiety group after coffee extract beverage containing L-theanine; type: in vivo, humans; details: 10 times per day for one month, 7 subjects
Protocol: Each of male and female subjects consisting of a total of 7 members was given a beverage prepared by dissolving the L-theanine obtained in Examples 1 and 2 at amounts of 0 mg, 60 mg, 300 mg or 1200 mg in 100 g of coffee extract in boiling water (equivalent to about 1 mg/kg, about 5 mg/kg, and about […], respectively) 10 times per day for one month.

[2] = Theanine content 60 mg in 100 g coffee extract
[3] = Theanine content 300 mg in 100 g coffee extract
[4] = Theanine content 1200 mg in 100 g coffee extract

CCNC(=O)CC[C@H](N)C(=O)O [L-theanine]
Were PMS symptoms suppressed? 4) none [1]: 0 subjects (0%).
amount of exercise (number of rotations of the rotatable cage for 60 minutes) (ICR male mice): significant decrease
dead cases in acute toxicity test (mice): no dead cases
High-Anxiety Group (number of subjects) (male and female subjects; [2]): 2
Low-Anxiety Group (number of subjects) (male and female subjects; [2]): 2
Moderate-Anxiety Group (number of subjects) (male and female subjects; [2]): 3
High-Anxiety Group (number of subjects) (male and female subjects; [3]): 0
Low-Anxiety Group (number of subjects) (male and female subjects; [3]): 0
Moderate-Anxiety Group (number of subjects) (male and female subjects; [3]): 1
High-Anxiety Group (number of subjects) (male and female subjects; [4]): 0
Low-Anxiety Group (number of subjects) (male and female subjects; [4]): 7
Moderate-Anxiety Group (number of subjects) (male and female subjects; [4]): 0
